Measured values as given in patent US11179395B2, “Treating melanoma with mebendazole and a mitogen-activated kinase inhibitor” (GEORGETOWN UNIVERSITY, priority 2017, dated 2021).
Read-outs that look alike come from different tables or passages of the source.

How the values were obtained:
[1] = Pharmacokinetic studies of MBZ formulations; type: in vivo, athymic mice; details: MBZ 40 mg/kg oral gavage; for lower exposure with trametinib co-administration vs. methylcellulose: 8 hours
[2] = Pharmacokinetic studies of MBZ formulations; type: in vivo, athymic mice; details: for mean plasma exposure at 8 hours / concentration at 8 h: MBZ 40 mg/kg oral gavage; for concentration at 8 h: athymic, mouse, plasma, oral, 40 mg/kg, read-out: mean plasma exposure at 8 hours
Procedure: In pharmacokinetic (PK) studies, MBZ was administered to athymic mice (described below) by oral gavage at a dose of 40 mg/kg in three different formulations (methylcellulose, oleic acid, or sesame oil/PBS) or methylcellulose in combination with cimetidine. MBZ and two metabolites, 2-Amino-5-benzoyl-1H bezimidizole (2ABB), and rac Dihydro MBZ (RDM), were quantified in mouse plasma as described in Bai et al., “Brain Penetration and Efficacy of Different Mebendazole Polymorphs in a Mouse Brain Tumor Model,” Clin. Cancer Res. 21:3462-3470 (2015)).

[3] = biological target: CRAF (Homo sapiens, UniProt P04049); assay: Affinity of MBZ for CRAF; type: binding
Sequence of CRAF (P04049 whole entry, canonical isoform): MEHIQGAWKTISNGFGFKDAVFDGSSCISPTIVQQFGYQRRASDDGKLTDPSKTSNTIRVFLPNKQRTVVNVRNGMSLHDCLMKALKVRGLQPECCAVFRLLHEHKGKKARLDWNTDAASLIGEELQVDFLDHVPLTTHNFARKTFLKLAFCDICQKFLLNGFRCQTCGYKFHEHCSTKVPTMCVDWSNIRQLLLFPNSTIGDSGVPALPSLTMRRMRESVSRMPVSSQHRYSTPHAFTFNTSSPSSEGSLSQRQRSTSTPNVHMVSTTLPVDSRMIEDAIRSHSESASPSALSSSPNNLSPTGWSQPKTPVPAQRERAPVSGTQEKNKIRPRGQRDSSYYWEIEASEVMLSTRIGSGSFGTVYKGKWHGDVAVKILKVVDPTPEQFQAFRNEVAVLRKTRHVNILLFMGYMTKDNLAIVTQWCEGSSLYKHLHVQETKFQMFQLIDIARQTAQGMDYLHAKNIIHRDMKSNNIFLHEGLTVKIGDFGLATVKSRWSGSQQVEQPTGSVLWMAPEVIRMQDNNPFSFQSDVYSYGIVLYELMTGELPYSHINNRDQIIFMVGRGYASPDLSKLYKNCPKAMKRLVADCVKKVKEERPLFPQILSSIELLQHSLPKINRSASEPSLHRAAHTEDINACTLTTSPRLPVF
Excerpt: MBZ interacts with VEGFR in silico and MBZ interacts with additional kinases in vitro, including BCR-ABL and BRAF. TMFS was used to show the nature of the interactions between MBZ, and VEGFR, and with BRAFWT or BRAFV600E. […] In fact these inhibitors actually enhance growth of NRASmut/BRAFWT tumors by paradoxically further activating the MAPK pathway through induced conformational changes in wild type RAF isoforms, inducing dimerization, membrane localization, and activation by RAS.

[4] = system: MEK1/2 and ERK1/2 phosphorylation; assay: Immunoblot analysis of xenograft tumor extracts; type: in vivo, athymic mice; details: tumors collected at termination of experiment; combination is HDT+MBZ
Procedure: Athymic mice were injected with 3×10^6 BAK melanoma cells, and tumors were allowed to grow to a volume of 100 mm^3. […] Time 0 is the tumor volume on the first day of treatment; tumor sizes were normalized to their size at time 0 of drug treatment. B) Mice were weighed every other day and body weights (g) plotted over time. Data from four experiments were combined for statistical analysis, to compare every mouse from each treatment group. The total mice for all experiments included vehicle control (n=13), LDT (n=12), MBZ (n=12), HDT (n=12), LDT+MBZ (n=12), and HDT+MBZ (n=15). The results are shown as the mean (+SD) of tumor volume in each group. C) and D) ERK and MEK phosphorylation was suppressed in large (C) or small (D) tumor xenografts from mice treated with T+MBZ. Tumor extracts were derived from xenografts, then subjected to immunoblot analysis using antibodies specific for total BRAT, phospho-BRAF, ERK1/2, phospho-ERK1/2, total MEK1/2, phospho-MEK1/2, or GAPDH as a loading control. SDS-PAGE and transfer of separated proteins to nitrocellulose membranes were performed according to standard procedures. […] Immune complexes were detected by incubation with appropriate horseradish peroxidase-conjugated antibodies to mouse or rabbit IgG (1:3000) and enhanced chemiluminescence (Pierce, Rockford, Ill.).

[5] = biological target: BRAFV600E (Homo sapiens, UniProt P15056, V600E); assay: In-vitro binding affinity of MBZ (FIG. 1C)
Sequence of BRAFV600E (P15056 whole entry V600E): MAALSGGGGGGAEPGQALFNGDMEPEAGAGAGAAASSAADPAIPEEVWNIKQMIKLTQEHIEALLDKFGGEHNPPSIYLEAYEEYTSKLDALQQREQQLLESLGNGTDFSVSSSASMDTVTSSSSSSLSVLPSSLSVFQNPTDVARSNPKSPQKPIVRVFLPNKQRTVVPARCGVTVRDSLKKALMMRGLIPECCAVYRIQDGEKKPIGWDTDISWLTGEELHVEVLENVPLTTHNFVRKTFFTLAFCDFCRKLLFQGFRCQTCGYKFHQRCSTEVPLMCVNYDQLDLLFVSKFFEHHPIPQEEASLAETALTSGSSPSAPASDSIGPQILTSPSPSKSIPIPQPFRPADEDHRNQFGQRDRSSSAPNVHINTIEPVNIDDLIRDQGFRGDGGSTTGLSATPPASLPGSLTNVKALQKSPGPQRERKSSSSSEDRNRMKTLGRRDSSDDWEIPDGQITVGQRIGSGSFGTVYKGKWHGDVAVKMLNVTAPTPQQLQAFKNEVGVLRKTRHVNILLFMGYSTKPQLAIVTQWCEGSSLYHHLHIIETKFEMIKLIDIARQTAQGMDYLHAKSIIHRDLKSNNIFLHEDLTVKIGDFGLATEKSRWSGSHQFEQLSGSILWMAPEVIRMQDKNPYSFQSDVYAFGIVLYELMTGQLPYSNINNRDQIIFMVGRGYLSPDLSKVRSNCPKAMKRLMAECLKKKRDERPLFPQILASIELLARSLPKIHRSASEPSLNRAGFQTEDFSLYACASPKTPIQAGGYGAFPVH
Excerpt: (§1) Efforts to develop drugs targeting mutant BRAF led to FDA approval of vemurafenib in 2011 and dabrafenib in 2013. […] In addition, other MAPK pathway proteins including CRAF and MEK were identified.

[6] = biological target: BRAFWT (Homo sapiens, UniProt P15056); assay: In-vitro binding affinity of MBZ (FIG. 1C)
Sequence of BRAFWT (P15056 whole entry): as the sequence (P15056 whole entry V600E) above, with E600V counted along it
Excerpt: as §1

[7] = system: BAK (BRAFWT/NRASQ61K) melanoma xenografts; assay: Mouse xenografting, tumor growth; type: in vivo, athymic mice; details: oral gavage; MBZ 40 mg/kg/qad, trametinib 0.1 or 3 mg/kg/qd
Procedure: Athymic mice were injected with 3×10^6 BAK melanoma cells, and tumors were allowed to grow to a volume of 100 mm^3. Animals were then gavaged with vehicle emulsion control, 40 mg/kg/qad (every other day) MBZ, low dose trametinib (LDT; 0.1 mg/kg/qd (once a day)), high dose trametinib (HDT; 3 mg/kg/qd) or a combination of MBZ and LDT or HDT, A) Tumor widths and lengths were measured and volumes calculated as w2×l/2, where width is defined as the smaller of the tumor dimensions. Time 0 is the tumor volume on the first day of treatment; tumor sizes were normalized to their size at time 0 of drug treatment. B) Mice were weighed every other day and body weights (g) plotted over time. […]
Athymic 6-week old male mice (Taconic (Hudson, N.Y.)) were acclimated to the Division of Comparative Medicine at Georgetown University a week prior to xenografting. […] Tumor growth was measured with calipers, and drug treatment started when tumor volumes reached 100 mm^3, after which mice were monitored daily for drug efficacy, as well for adverse effects, including weight and behavior. […] Each tumor from each treatment group was measured on indicated days, and all tumor sizes were then normalized to their size at day 0 of drug treatment. […] The results were expressed as the mean (±SD) of tumor volume in each group.

[8] = system: MEK/ERK pathway in BAK NRASQ61K melanoma cells; assay: Reverse-phase protein array (RPPA); type: cell-based, Human; details: 10 nM or 100 nM; 1, 8 or 24 h
Procedure: Cell lysates were analyzed by reverse-phase protein array (RPPA). Samples were diluted to 0.5 mg/mL and dilutions printed on slides in triplicate. Slides were immunostained with 137 different antibodies specific for total proteins, or phosphorylated or cleaved products. […] Intensity values were normalized to that of total protein for each sample stained with Sypro Ruby (Invitrogen Carlsbad, Calif.)). Unsupervised cluster analysis http://www.hiv.1an1.ov/content/sequence/HEATMAP/heatmap.html was performed for all proteins in the RPPA using the standard bootstrap method.
Given the potential changes in tumor cell signaling and survival over the long time course of the xenografts, potential mechanisms by which MBZ+trametinib exerts its cytotoxic effects were examined using cultured BAK NRASQ61K melanoma cells. Cells were exposed to MBZ (10 nM or 100 nM), trametinib (10 nM or 100 nM), or a combination of the two for 1, 8, or 24 h, after which cell extracts were subjected to reverse-phase protein array (RPPA) analysis.

[9] = 10 mg/kg/day, chronic MBZ; cited from earlier work
[10] = system: patient-derived metastatic melanoma cells harboring a BRAFWT/NRASQ61K mutation profile; assay: Treatment of patient-derived metastatic melanoma cells (FIG. 7); type: cell-based, Human
Excerpt: In additional studies, patient-derived cells harboring a BRAFWT/NRASQ61K mutation profile were separated into CD133+ populations and CD133− populations.

[11] = biological target: VEGFR2 (Homo sapiens, UniProt P35968); assay: MBZ potency towards VEGFR2 compared with BRAF (FIG. 1C); type: biochemical
Sequence of VEGFR2 (P35968 20-1356): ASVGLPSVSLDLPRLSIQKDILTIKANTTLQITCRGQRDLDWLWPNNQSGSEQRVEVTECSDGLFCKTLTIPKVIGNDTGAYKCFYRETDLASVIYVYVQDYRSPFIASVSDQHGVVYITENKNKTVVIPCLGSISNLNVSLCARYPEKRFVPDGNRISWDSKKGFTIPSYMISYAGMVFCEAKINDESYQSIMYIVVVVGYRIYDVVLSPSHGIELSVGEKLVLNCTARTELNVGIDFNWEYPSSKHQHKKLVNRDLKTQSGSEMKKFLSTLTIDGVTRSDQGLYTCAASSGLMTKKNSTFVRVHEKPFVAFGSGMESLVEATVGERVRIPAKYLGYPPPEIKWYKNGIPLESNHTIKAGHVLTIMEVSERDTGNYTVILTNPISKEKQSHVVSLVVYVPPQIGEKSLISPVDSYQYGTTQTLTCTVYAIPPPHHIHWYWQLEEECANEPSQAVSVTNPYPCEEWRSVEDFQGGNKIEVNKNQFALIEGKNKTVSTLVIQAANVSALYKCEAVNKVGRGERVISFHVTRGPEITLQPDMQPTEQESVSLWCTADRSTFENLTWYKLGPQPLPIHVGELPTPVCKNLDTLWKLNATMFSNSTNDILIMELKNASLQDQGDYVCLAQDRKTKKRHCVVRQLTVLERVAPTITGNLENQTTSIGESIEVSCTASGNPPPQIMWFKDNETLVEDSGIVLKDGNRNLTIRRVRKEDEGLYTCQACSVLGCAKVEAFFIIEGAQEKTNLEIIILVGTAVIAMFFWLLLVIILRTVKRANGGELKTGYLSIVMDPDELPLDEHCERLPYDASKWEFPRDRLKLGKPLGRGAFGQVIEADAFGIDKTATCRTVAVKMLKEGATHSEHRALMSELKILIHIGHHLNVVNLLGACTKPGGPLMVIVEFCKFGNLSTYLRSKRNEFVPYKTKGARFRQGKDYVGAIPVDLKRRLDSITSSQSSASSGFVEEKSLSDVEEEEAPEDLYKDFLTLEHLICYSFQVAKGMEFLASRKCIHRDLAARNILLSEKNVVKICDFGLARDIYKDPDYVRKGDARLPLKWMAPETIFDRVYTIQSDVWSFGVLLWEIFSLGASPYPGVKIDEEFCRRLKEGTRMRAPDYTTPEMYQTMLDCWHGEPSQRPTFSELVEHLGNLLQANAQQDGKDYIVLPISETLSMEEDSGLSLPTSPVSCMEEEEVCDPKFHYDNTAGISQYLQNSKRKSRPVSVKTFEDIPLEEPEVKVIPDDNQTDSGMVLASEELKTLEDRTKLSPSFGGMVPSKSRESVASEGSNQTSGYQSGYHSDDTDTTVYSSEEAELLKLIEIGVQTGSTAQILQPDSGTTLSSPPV

[12] = system: BAK, BUL and STU melanoma cells; assay: XTT cell viability assay, all three melanoma cell lines; type: cell-based, Human; details: 72 h
Procedure: FIGS. 2A-2C show decreased viability of melanoma cells exposed to MBZ, dabrafenib (D), trametinib (T), or combinations of T+D or MBZ+trametinib. A) BAK (BRAFWT/NRASQ61K); B) BUL (BRAFWT/NRASQ61K); and C.) STU (BRAFV600K/NRASWT) melanoma cells were exposed to the indicated concentrations of MBZ, D, T, T+D or MBZ+trametinib (T+MBZ) for 72 h, and subjected to XTT cell viability assays, as described in the Examples. Error bars represent mean±SD for triplicates. […] The results shown are based on a single experiment in triplicate; and repeated in three independent experiments with essentially the same results.
MBZ, dabrafenib, and trametinib were purchased from Sigma-Aldrich (St. Louis, Mo.) and ActiveBiochem (Maplewood, N.J.), respectively. 5×10^3 viable cells per well were plated in 96-well dishes and allowed to recover for 12 h prior to drug treatment. Cells in triplicate wells were treated for up to 72 h (based on initial time course experiments showing maximal effects at that time point) with different concentrations of trametinib, dabrafenib, or MBZ alone, or a combination of MBZ and trametinib. Negative controls were exposed to vehicle DMSO in the same volumes. Cell viability was assessed by an XTT assay, according to a manufacturer's specifications (Biotium Inc (Fremont, Calif.)). Reduced XTT was measured by absorbance at 490 nm on a PerkinElmer Victor 3 (Duluth, Ga.) plate reader. Cells exposed to detergent served as a positive control.

[13] = system: BAK (BRAFWT/NRASQ61K) melanoma cells; assay: XTT cell viability assay; type: cell-based; details: Homo sapiens; cultured NRAS cells, FIG. 2A; read-out: IC80 (equivalent to patient mean peak plasma concentration)
Procedure: MBZ, dabrafenib, and trametinib were purchased from Sigma-Aldrich (St. Louis, Mo.) and ActiveBiochem (Maplewood, N.J.), respectively. […] Cell viability was assessed by an XTT assay, according to a manufacturer's specifications (Biotium Inc (Fremont, Calif.)). Reduced XTT was measured by absorbance at 490 nm on a PerkinElmer Victor 3 (Duluth, Ga.) plate reader. […]
The results shown are based on a single experiment in triplicate, and repeated in three independent experiments with essentially the same results. […] For determining synergism, the combination index (τ) was calculated from single dose-response curves and combination experiments as τ=xA/XA+xB/XB, in which, for a given cytotoxic effect, xA and xB are the concentrations of drugs A and B in the combination, and XA and XB are the concentrations of drugs A and B that achieve the same cytotoxic effect when given alone. […]

[14] = system: BRAF; assay: In-vitro kinase assay; type: biochemical
Excerpt: as §1

[15] = system: MEK; assay: In-vitro kinase assay; type: biochemical
Excerpt: as §1

[16] = system: MEK/ERK pathway in BAK cells; assay: Immunoblot analysis of cultured cells; type: cell-based, Human; details: 100 nM; for pMEK1/2 S217/221 phosphorylation: combination within 30 min
Excerpt: FIGS. 5A-H are RPPA (A) and immunoblot (B-E) analyses that reveal suppression of the MAPK pathway, including ERK and its downstream substrates in melanoma cells exposed to MBZ+trametinib. A. […] Cell extracts derived at indicated times were subjected to RPPA analysis, and unsupervised hierarchal clustering was used to generate a heat map as described in Materials and Methods. […] F)-H) Immunoblot experiments were repeated with an additional melanoma cell line BUL, which harbors the same NRASQ61K mutation. […] All immunoblots were then reprobed with GAPDH as loading control. SDS-PAGE and transfer of separated proteins to nitrocellulose membranes were performed according to standard procedures. Membranes were stained with Ponceau S (0.1%) to verify equal loading and transfer of proteins, and then incubated with antibodies specific for pERK1/2 T202/Y204, pMEK1/2 S217/221, pBAD S-112, total BAD, total ERK1/2, total MEK1/2, BCL2 (Santa Cruz Biotech), BCLXL (Santa Cruz Biotech (Santa Cruz, Calif.)), cleaved PARP (Cell Signaling (Danvers, Mass.)), or GAPDH (Abeam (Cambridge, UK); loading control). Immune complexes were detected by incubation with appropriate horseradish peroxidase-conjugated antibodies to mouse or rabbit IgG (1:3000) and enhanced chemiluminescence (Pierce, Rockford, Ill.).

In the case of `COC(=O)Nc1nc2ccc(C(O)c3ccccc3)cc2[nH]1` (racemic) [RDM, rac Dihydro MBZ], the “lower exposure with trametinib co-administration vs. methylcellulose” value [1] is reported as “did not alter”, the “mean plasma exposure at 8 hours” value ([2]; methylcellulose formulation) is reported as 57 ng/mL and the “mean plasma exposure at 8 hours” value ([2]; oleic acid formulation) is reported as 543 ng/mL.

In the case of `Nc1nc2cc(C(=O)c3ccccc3)ccc2[nH]1` [2ABB, 2-Amino-5-benzoyl-1H bezimidizole], the “lower exposure with trametinib co-administration vs. methylcellulose” value [1] is reported as ~45%, the “mean plasma exposure at 8 hours” value ([1]; trametinib co-administration) is reported as 242 ng/mL and the “mean plasma exposure at 8 hours” value ([2]; methylcellulose formulation) is reported as 425 ng/mL. For the same compound, the “mean plasma exposure at 8 hours” value ([2]; oleic acid formulation) was 427 ng/mL.

In the case of `COC(=O)Nc1nc2ccc(C(=O)c3ccccc3)cc2[nH]1` [MBZ, methyl N-[6-(benzoyl)-1H-benzimidazol-2-yl] carbamate], the “affinity for CRAF” value [3] is reported as “very low affinity”, the “MEK1/2 and ERK1/2 phosphorylation in tumors” value [4] is reported as “suppress MEK and ERK phosphorylation” and the “lower exposure with trametinib co-administration vs. methylcellulose” value [1] is reported as “did not alter”. For the same compound, the Kd [5] was 210 nM, the Kd [6] was 230 nM and the concentration at 8 h ([2]; methylcellulose formulation) was 473 ng/mL. For the same compound, the concentration at 8 h ([2]; oleic acid formulation) was 1390 ng/mL, the “difference in exposure between formulations or combinations” value ([2]; one hour, P>0.05 Kruskal-Wallis) was “no difference” and the tumor growth [7] was “did not work as a monotherapy”. For the same compound, the “phosphorylation of proteins associated with the MEK/ERK pathway” value [8] was “down-regulated”, the “mean peak plasma level” value [9] was 470 nM and the “peak plasma level, variability between patients” value [9] was 0.34 to 1.69 µM. For the same compound, the sensitivity to treatment [10] was “sensitivity”, the “potency towards BRAF versus VEGFR2” value [11] was “more potency towards BRAF” and the “cytotoxicity as single agent” value [12] was “weak cytotoxic activity”. For the same compound, the “concentration at which significant growth inhibition was observed” value ([12]; 2-way ANOVA) was ≥ 10 nM, the IC80 [13] was ~470 nM and the “inhibition of kinase activity by MBZ” value [14] was “nM range”. For the same compound, the “inhibition of kinase activity by MBZ” value [15] was “nM range”, the “ERK1/2 (T202/Y204) phosphorylation” value ([16]; combination undetectable by 30 min) was “diminished” and the “pMEK1/2 S217/221 phosphorylation” value [16] was “not inhibited”.

In the case of `CC(C)(C)c1nc(-c2cccc(NS(=O)(=O)c3c(F)cccc3F)c2F)c(-c2ccnc(N)n2)s1` [dabrafenib], the “cytotoxicity as single agent” value [12] is reported as “resistance”.

For `CC(=O)Nc1cccc(-n2c(=O)n(C3CC3)c(=O)c3c(Nc4ccc(I)cc4F)n(C)c(=O)c(C)c32)c1` [trametinib], the “pMEK1/2 S217/221 phosphorylation” value [16] was “not inhibited”.
